From publication PMC8096218, “Global RNA profiles show target selectivity and physiological effects of peptide-delivered antisense antibiotics” (Nucleic Acids Research, 2021)

Experiments:
fabF mRNA = assay: RNA-seq differential expression, second gene of the dicistron; format: cell-based, Salmonella enterica serovar Typhimurium; details: edgeR, versus water; 15 min; 5 μM KFF-/RXR-constructs, 10 μM Tat-constructs; triplicates
Description: Bacterial overnight cultures were diluted 1:100 in fresh MHB and grown to OD600 0.5. The obtained cultures were diluted to ∼10^6 cfu/ml in non-cation-adjusted MHB. Afterward, the bacterial solution was transferred into low-binding 5 ml tubes (LABsolute) along with the 20× PNA, peptide or PPNA solution. The final concentrations were 5 μM for KFF- and RXR-PNAs, and 10 μM for Tat-PNAs. Equimolar concentrations were used for the respective peptide control conditions. As a negative control, cells were treated with the respective volume of sterile nuclease-free water, which was used as solvent for the test compounds. […]
DNase treatment, cDNA library preparation and sequencing was conducted at Vertis (Munich, Germany). […] The cDNA was purified using the Agencourt AMPure XP kit (Beckman Coulter Genomics) and was analyzed by capillary electrophoresis. […] The cDNA pool was sequenced on an Illumina NextSeq 500 system using 75 bp read length.
Reads from the RNA-Seq experiments were trimmed, filtered and mapped against the S. enterica subsp. enterica serovar Typhimurium SL1344 reference genome and the three plasmids pSLT_SL1344, pCol1B9_SL1344 (other name is p2), and pRSF1010_SL1344 ([19]). […]
All downstream analysis was performed using packages from the R/Bioconductor project. The raw read counts were imported and analyzed with edgeR (v3.30.0). […]

acpP mRNA = assay: Northern blot of acpP transcript levels after PNA treatment; format: cell-based, Salmonella enterica serovar Typhimurium; details: 5 μM, 5, 10 or 15 min, 10^6 cfu/ml; two biological replicates
Description: For northern blotting, equal RNA amounts were used for gel electrophoresis (10 μg in Figure 4B; 100–150 ng in Figure 4E) and subsequent transfer to Hybond+ membranes (GE Healthcare Life Sciences). After crosslinking (0,12 J/cm^2), membranes were blocked using ROTI®Hybri-Quick (Roth) and incubated with RNA-specific digoxigenin (DIG; Roche)- or radioactively-labeled (5′ ^32P-labeling ([28])) oligonucleotides. In vitro transcription (MEGAscript T7 polymerase, Ambion), DIG-labeling of probes and northern blot detection was performed according to the manufacturer's instructions. Sequences of all the oligonucleotides (purchased from Eurofins Genomics or Sigma) employed for northern blot probe generation or RT-qPCR are listed in Supplementary Table S2. Signals were visualized on a phosphorimager (Typhoon FLA 7000, GE Healthcare) for radioactive probes, or using an ImageQuant (LAS 4000, GE Healthcare) for DIG-labeled probes.
Bacterial overnight cultures were diluted 1:100 in fresh MHB and grown to OD600 0.5. […]
Figure 4. […] In brief, 10^9 cfu were pelleted for the isolation of RNA, which was subsequently analyzed using (A) a denaturing polyacrylamide gel (1 μg/lane) and (B) northern blotting (10 μg/lane). […] (B) Transcript levels of two sRNAs, SroC and SdhX (SdhX1, SdhX2), and the loading control 5S were detected using sequence specific radioactive-labeled probes. […]

KFFKFFKFFK [KFF-acpP, KFF peptide conjugated to 10-mer antisense PNA against the translational start site of acpP]
logFC fabF (fabF mRNA): -1.1555
acpP mRNA levels (northern blot) (acpP mRNA): rapid decrease of acpP mRNA levels from 5 min post treatment onwards
